ChEMBL document CHEMBL2380311 (Bioorg Med Chem Lett, 2013)
The source made the active and inactive calls. The calls are words filed in the database; no cut-off is given here.

Tests used:
Cholinesterase = Cholinesterase (Equus caballus, UniProt P81908)
Description: Inhibition of equine serum BChE using butyrylthiocholine iodide as substrate after 5 mins by Ellman's method

Acetylcholinesterase = Acetylcholinesterase (Electrophorus electricus, UniProt O42275)
Description: Inhibition of electric eel AChE using acetylthiocholine iodide as substrate after 5 mins by Ellman's method

[1] = biological target: Cholinesterase (Equus caballus) (UniProt P81908); assay: Mixed-type inhibition of equine serum BChE using butyrylthiocholine iodide as substrate by Lineweaver-Burk reciprocal plot analysis
Chain of Cholinesterase (Equus caballus) (P81908 whole entry): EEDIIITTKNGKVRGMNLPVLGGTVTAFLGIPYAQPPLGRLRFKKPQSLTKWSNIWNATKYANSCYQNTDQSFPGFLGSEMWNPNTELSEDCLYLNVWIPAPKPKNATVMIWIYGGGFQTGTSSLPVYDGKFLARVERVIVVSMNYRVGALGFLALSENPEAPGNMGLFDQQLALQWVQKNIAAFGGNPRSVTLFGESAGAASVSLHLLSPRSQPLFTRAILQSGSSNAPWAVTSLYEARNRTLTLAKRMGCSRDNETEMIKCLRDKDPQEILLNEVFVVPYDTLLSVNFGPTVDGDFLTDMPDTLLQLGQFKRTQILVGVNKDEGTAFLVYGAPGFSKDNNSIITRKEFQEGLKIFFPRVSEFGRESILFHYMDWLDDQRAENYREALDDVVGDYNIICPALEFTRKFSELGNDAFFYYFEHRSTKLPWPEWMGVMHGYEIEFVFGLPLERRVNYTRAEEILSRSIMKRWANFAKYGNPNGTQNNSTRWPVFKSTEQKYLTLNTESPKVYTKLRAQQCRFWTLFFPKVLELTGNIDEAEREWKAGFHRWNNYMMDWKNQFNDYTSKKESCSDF

Chain of Cholinesterase (P81908 whole entry): as above
Chain of Acetylcholinesterase (O42275 whole entry): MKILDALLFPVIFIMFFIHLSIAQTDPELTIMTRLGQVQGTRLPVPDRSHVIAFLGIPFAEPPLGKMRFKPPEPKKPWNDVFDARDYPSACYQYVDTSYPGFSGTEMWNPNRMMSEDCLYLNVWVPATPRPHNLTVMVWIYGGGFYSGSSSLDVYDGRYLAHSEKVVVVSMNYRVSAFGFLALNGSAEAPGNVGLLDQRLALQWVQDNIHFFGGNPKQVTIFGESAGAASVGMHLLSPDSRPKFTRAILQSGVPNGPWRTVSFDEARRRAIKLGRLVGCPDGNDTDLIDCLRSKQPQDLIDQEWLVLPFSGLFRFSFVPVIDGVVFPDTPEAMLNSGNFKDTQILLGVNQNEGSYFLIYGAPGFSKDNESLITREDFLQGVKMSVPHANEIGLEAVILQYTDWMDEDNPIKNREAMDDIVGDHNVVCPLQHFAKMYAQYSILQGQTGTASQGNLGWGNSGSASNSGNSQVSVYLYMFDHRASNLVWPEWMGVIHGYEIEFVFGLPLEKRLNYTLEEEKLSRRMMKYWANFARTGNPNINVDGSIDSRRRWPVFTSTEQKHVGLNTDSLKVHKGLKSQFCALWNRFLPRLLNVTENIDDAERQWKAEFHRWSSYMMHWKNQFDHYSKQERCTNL

SMILES: CC(C(=O)NCCCNc1c2c(nc3ccccc13)CCCC2)c1ccc(-c2ccc(OCCCCCCO[N+](=O)[O-])cc2)c(F)c1 (stereo unspecified)
- IC50 (Cholinesterase): 8.1 nM
- IC50 (Acetylcholinesterase): 1010 nM

SMILES: CC(C(=O)NCCCNc1c2c(nc3ccccc13)CCCC2)c1ccc(-c2ccc(OCCCO[N+](=O)[O-])cc2)c(F)c1 (stereo unspecified)
- IC50 (Cholinesterase): 8.6 nM
- IC50 (Acetylcholinesterase): 189 nM

SMILES: CC(C(=O)NCCCNc1c2c(nc3ccccc13)CCCC2)c1ccc(-c2ccc(OCCCCO[N+](=O)[O-])cc2)c(F)c1 (stereo unspecified)
- IC50 (Cholinesterase): 7.9 nM
- IC50 (Acetylcholinesterase): 357 nM

SMILES: CC(C(=O)NCCCNc1c2c(nc3ccccc13)CCCC2)c1ccc(-c2ccc(OCCO[N+](=O)[O-])cc2)c(F)c1 (stereo unspecified)
- IC50 (Cholinesterase): 8.1 nM
- IC50 (Acetylcholinesterase): 112 nM

SMILES: CC(C(=O)NCCCCNc1c2c(nc3ccccc13)CCCC2)c1ccc(-c2ccc(OCCO[N+](=O)[O-])cc2)c(F)c1 (stereo unspecified)
- IC50 (Cholinesterase): 13.9 nM
- IC50 (Acetylcholinesterase): 227 nM

SMILES: CC(C(=O)NCCCCNc1c2c(nc3ccccc13)CCCC2)c1ccc(-c2ccc(OCCCCCCO[N+](=O)[O-])cc2)c(F)c1 (stereo unspecified)
- IC50 (Cholinesterase): 3.9 nM
- IC50 (Acetylcholinesterase): 1460 nM

SMILES: CC(C(=O)NCCNc1c2c(nc3ccccc13)CCCC2)c1ccc(-c2ccc(OCCCO[N+](=O)[O-])cc2)c(F)c1 (stereo unspecified)
- IC50 (Cholinesterase): 10 nM
- IC50 (Acetylcholinesterase): 341 nM

SMILES: CC(C(=O)NCCCNc1c2c(nc3ccccc13)CCCC2)c1ccc(-c2ccccc2)c(F)c1 (stereo unspecified)
- IC50 (Cholinesterase): 13.9 nM
- IC50 (Acetylcholinesterase): 345 nM

SMILES: CC(C(=O)NCCCCNc1c2c(nc3ccccc13)CCCC2)c1ccc(-c2ccc(OCCCO[N+](=O)[O-])cc2)c(F)c1 (stereo unspecified)
- IC50 (Cholinesterase): 10.6 nM
- IC50 (Acetylcholinesterase): 261 nM

SMILES: CC(C(=O)NCCNc1c2c(nc3ccccc13)CCCC2)c1ccc(-c2ccc(OCCO[N+](=O)[O-])cc2)c(F)c1 (stereo unspecified)
- IC50 (Cholinesterase): 9.9 nM
- IC50 (Acetylcholinesterase): 183 nM

SMILES: CC(C(=O)NCCCCNc1c2c(nc3ccccc13)CCCC2)c1ccc(-c2ccc(OCCCCO[N+](=O)[O-])cc2)c(F)c1 (stereo unspecified)
- IC50 (Cholinesterase): 7.7 nM
- IC50 (Acetylcholinesterase): 641 nM

SMILES: CC(C(=O)NCCNc1c2c(nc3ccccc13)CCCC2)c1ccc(-c2ccc(OCCCCO[N+](=O)[O-])cc2)c(F)c1 (stereo unspecified)
- IC50 (Cholinesterase): 10.1 nM
- IC50 (Acetylcholinesterase): 1350 nM

SMILES: CC(C(=O)NCCNc1c2c(nc3ccccc13)CCCC2)c1ccc(-c2ccc(OCCCCCCO[N+](=O)[O-])cc2)c(F)c1 (stereo unspecified)
- inhibition [1]: Active
- IC50 (Cholinesterase): 7.6 nM
- IC50 (Acetylcholinesterase): 4310 nM

SMILES: CC(C(=O)NCCCCNc1c2c(nc3ccccc13)CCCC2)c1ccc(-c2ccccc2)c(F)c1 (stereo unspecified)
- IC50 (Cholinesterase): 11 nM
- IC50 (Acetylcholinesterase): 193 nM

SMILES: CC(C(=O)NCCNc1c2c(nc3ccccc13)CCCC2)c1ccc(-c2ccccc2)c(F)c1 (stereo unspecified)
- IC50 (Cholinesterase): 58.7 nM
- IC50 (Acetylcholinesterase): 715 nM
